Results from PubChem BioAssay AID2060891 (Molecular Pharmacology Branch, DTP, NCI, 2025).

Test system: K98450-129-R-PDC complex spheroid growth, percent test/control
Assay: Anticancer human tumor K98450-129-R-PDC patient-derived colon adenocarcinoma cell line growth inhibition [RAS]
Conditions: for viability, T/C: stronger effect = lower value; active = viability on the fitted dose curve at most 10% of control; inactive = the rest
Source text: RAS pathway inhibitors in Combinations in Complex Spheroids
A high-throughput screen of multi-cell type tumor spheroids was designed to identify active combinations of RAS pathway inhibitors and targeted small molecules. Complex spheroids include a stromal component modeled by human endothelial cells (HUVEC) and fibroblasts modeled by human mesenchymal stem cells (MSCs). The concentration ranges selected for each drug and investigational agent were based upon clinically achievable concentrations if the clinical Cmax of the agent was known.
Compounds. The drugs and investigational agents: abemaciclib (NSC768073), cobimetinib (NSC768068), divarasib (GDC6063, NSC841802), docetaxel (NSC628503), GDC-1971 (RLY-1971, NSC841576), gemcitabine (NSC613327), inavolisib (NSC800729), ipatasertib (NSC767898), KB-0742 (NSC834161), MRTX-1133 (NSC836407), osimertinib (NSC779217), RMC-4630 (NSC839698), RMC-6236 (NSC851965), RMC-6291 (NSC852671), Ro-3306 (NSC812927), sapanisertib (NSC764658), SN-38 (NSC673596), staurosporine (NSC755774), SY5609 (NSC837396), and tovorafenib (DAY101, NSC766906), were obtained from the National Cancer Institute (NCI) Developmental Therapeutics Program Chemical Repository. The FDA-approved anticancer drug set is available from the NCI Developmental Therapeutics Program. […] The stock solutions were prepared in dimethyl sulfoxide (DMSO, Sigma-Aldrich, St. Louis, MO, cat. D2650) at 800-fold the tested concentration and stored at -70 degrees C prior to their use. All drugs and investigational agents were tested over a range starting from a high concentration at or near the clinical Cmax and decreasing in half-log increments. If the clinical Cmax for an agent had not been determined, the highest concentration tested was 10 microM.
Cell Culture. All cells were maintained in an incubator at 37 degrees C and 5% CO2 with 95% humidity. The PDC lines were cultured according to standard operating procedures established by the NCI PDMR. All PDCs were thawed and cultured in Matrigel-coated flasks prepared with a working solution of 1X Ham's F-12 nutrient mix, without supplementation (Invitrogen, Waltham, MA, cat. 11765054), 100 U/mL penicillin-streptomycin (Invitrogen, cat. 15140122), and 2.5% Matrigel (Corning Inc., Corning, NY, cat. 354248) for the first three passages. The 362531-283-R-J2-PDC and 782815-120-R-J1-PDC lines were cultured in 6C/Colon 1B media, which includes advanced DMEM/F-12 (Thermo Fisher Scientific, cat. 12634028), 10 mM HEPES (Thermo Fisher Scientific, cat. 15630080), 1X GlutaMAX supplement (Thermo Fisher Scientific, cat. 35050061), 0.1 mg/mL primocin (InvivoGen, San Diego, CA, cat. ant-pm-2), 10% defined fetal bovine serum, heat inactivated (HyClone Laboratories Inc., Logan, UT, cat. SH30070.03HI), 50% L-WRN conditioned media (ATCC, cat. CRL-3276), 1.25 mM N-Acetyl-L-cysteine (Sigma-Aldrich, cat. A9165), 10 mM nicotinamide (Sigma-Aldrich, cat. N0636), 1X B-27 supplement (Thermo Fisher Scientific, cat. 17504044), 1X N-2 supplement (Thermo Fisher Scientific, cat. 17502048), 50 ng/mL human EGF (Thermo Fisher Scientific, cat. PHG0311), and 10 microM Y-27632 dihydrochloride (Tocris Bioscience, cat. 1254). The K12877-001-R-J1-PDC line was cultured in 6I media, which includes all 6C/Colon 1B media plus 10 ng/mL human FGF-10 (PeproTech, cat. 100-26), 1 ng/mL human FGF-2 (PeproTech, cat. 100-18B), 1 µM prostaglandin E2 (Tocris Bioscience, cat. 2296), […] hydrocortisone (Sigma-Aldrich, cat. H4001), and […] bovine insulin (Sigma-Aldrich, cat. I6634). The K86415-001-R-J1-PDC line was cultured in 6D media, which includes all 6C/Colon 1B media components minus the L-WRN conditioned media. The 485176-168-R4-J1-PDC was cultured in PANC media, which includes all 6C/Colon 1B media plus 100 ng/mL human FGF-10 (PeproTech, cat. 100-26), 500 nM SB-431542 (Selleckchem, cat. S1067), and 10 nM gastrin (Tocris Bioscience, cat. 3006). […]

[1] = curve of first compound, second compound 0.000949 µM
[2] = curve of first compound, second compound 0.003 µM
[3] = curve of first compound, second compound 0.00949 µM
[4] = curve of first compound, second compound 0.03 µM
[5] = curve of first compound, second compound 0.0949 µM
[6] = curve of first compound, second compound 0.3 µM
[7] = second compound 0.000949 µM, first compound 0.0316 µM
[8] = second compound 0.000949 µM, first compound 0.1 µM
[9] = second compound 0.000949 µM, first compound 0.316 µM
[10] = second compound 0.000949 µM, first compound 1 µM
[11] = second compound 0.000949 µM, first compound 3.16 µM
[12] = second compound 0.000949 µM, first compound 10 µM
[13] = second compound 0.003 µM, first compound 0.0316 µM
[14] = second compound 0.003 µM, first compound 0.1 µM
[15] = second compound 0.003 µM, first compound 0.316 µM
[16] = second compound 0.003 µM, first compound 1 µM
[17] = second compound 0.003 µM, first compound 3.16 µM
[18] = second compound 0.003 µM, first compound 10 µM
[19] = second compound 0.00949 µM, first compound 0.0316 µM
[20] = second compound 0.00949 µM, first compound 0.1 µM
[21] = second compound 0.00949 µM, first compound 0.316 µM
[22] = second compound 0.00949 µM, first compound 1 µM
[23] = second compound 0.00949 µM, first compound 3.16 µM
[24] = second compound 0.00949 µM, first compound 10 µM
[25] = second compound 0.03 µM, first compound 0.0316 µM
[26] = second compound 0.03 µM, first compound 0.1 µM
[27] = second compound 0.03 µM, first compound 0.316 µM
[28] = second compound 0.03 µM, first compound 1 µM
[29] = second compound 0.03 µM, first compound 3.16 µM
[30] = second compound 0.03 µM, first compound 10 µM
[31] = second compound 0.0949 µM, first compound 0.0316 µM
[32] = second compound 0.0949 µM, first compound 0.1 µM
[33] = second compound 0.0949 µM, first compound 0.316 µM
[34] = second compound 0.0949 µM, first compound 1 µM
[35] = second compound 0.0949 µM, first compound 3.16 µM
[36] = second compound 0.0949 µM, first compound 10 µM
[37] = second compound 0.3 µM, first compound 0.0316 µM
[38] = second compound 0.3 µM, first compound 0.1 µM
[39] = second compound 0.3 µM, first compound 0.316 µM
[40] = second compound 0.3 µM, first compound 1 µM
[41] = second compound 0.3 µM, first compound 3.16 µM
[42] = second compound 0.3 µM, first compound 10 µM
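Note: spheroids exposed to agents for seven days before the viability readout.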
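Throughout, for viability, T/C: luminescence used as a proxy for viable cell amount.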

CC(=O)OC12COC1CC(O)C1(C)C(=O)C(O)C3=C(C)C(OC(=O)C(O)C(NC(=O)OC(C)(C)C)c4ccccc4)CC(O)(C(OC(=O)c4ccccc4)C21)C3(C)C (stereo unspecified) + CCn1c(-c2cc(N3CCN(C)CC3)cnc2C(C)OC)c2c3cc(ccc31)-c1csc(n1)CC(NC(=O)C1CC1C)C(=O)N1CCCC(N1)C(=O)OCC(C)(C)C2
inactive: viability, T/C [7] 101% | viability, T/C [8] 78.6% | viability, T/C [9] 66.3% | viability, T/C [10] 39.4% | viability, T/C [11] 38.4% | viability, T/C [12] 34% | viability, T/C [13] 95.8% | viability, T/C [14] 69.4% | viability, T/C [15] 46% | viability, T/C [16] 29.2% | viability, T/C [17] 32.5% | viability, T/C [18] 22.4% | viability, T/C [19] 64.7% | viability, T/C [20] 70.1% | viability, T/C [21] 35.6% | viability, T/C [22] 24.6% | viability, T/C [23] 23.5% | viability, T/C [24] 19.2% | viability, T/C [25] 44.9% | viability, T/C [26] 43.2% | viability, T/C [27] 20.9% | viability, T/C [28] 16.6% | viability, T/C [29] 15.8% | viability, T/C [30] 15.3% | viability, T/C [31] 17.3% | viability, T/C [32] 14.5% | viability, T/C [33] 12.4% | viability, T/C [34] 12.5% | viability, T/C [35] 12.5% | viability, T/C [36] 10.7% | viability, T/C [37] 11% | viability, T/C [38] 10.1% | viability, T/C [39] 11% | viability, T/C [40] 9.96% | viability, T/C [41] 10.9% | viability, T/C [42] 9.38%
188 nM: IC50 [3]
688 nM: IC50 [1]
252 nM: IC50 [2]
< 31.6 nM: IC50 [4] | IC50 [5] | IC50 [6]

Cc1nc(N2CCC3(CC2)COC(C)C3N)c(CO)nc1Sc1ccnc(N)c1Cl (stereo unspecified)
3.66 µM [middle of 4 runs]: IC50 (curve of compound)
inactive: viability, T/C (compound 0.0316 µM) 96.9% [middle of 4 runs] | viability, T/C (compound 0.1 µM) 92.8% [middle of 4 runs] | viability, T/C (compound 0.316 µM) 86.5% [middle of 4 runs] | viability, T/C (compound 1 µM) 77.2% [middle of 4 runs] | viability, T/C (compound 3.16 µM) 53.1% [middle of 4 runs] | viability, T/C (compound 10 µM) 28.8% [middle of 4 runs]

CC1(O)CCCC1n1c(=O)c(C(F)F)cc2cnc(NC3CCN(S(C)(=O)=O)CC3)nc21 (stereo unspecified) + CCn1c(-c2cc(N3CCN(C)CC3)cnc2C(C)OC)c2c3cc(ccc31)-c1csc(n1)CC(NC(=O)C1CC1C)C(=O)N1CCCC(N1)C(=O)OCC(C)(C)C2
> 10000 nM: IC50 [1] | IC50 [2]
< 31.6 nM: IC50 [4] | IC50 [5] | IC50 [6]
inactive: viability, T/C [7] 97.3% | viability, T/C [8] 94.3% | viability, T/C [9] 95.8% | viability, T/C [10] 72% | viability, T/C [11] 72.1% | viability, T/C [12] 78.4% | viability, T/C [13] 81.7% | viability, T/C [14] 78.6% | viability, T/C [15] 60.3% | viability, T/C [16] 74.2% | viability, T/C [17] 68.3% | viability, T/C [18] 71% | viability, T/C [19] 77.1% | viability, T/C [20] 69.8% | viability, T/C [21] 60.5% | viability, T/C [22] 50.9% | viability, T/C [23] 50.5% | viability, T/C [24] 47.8% | viability, T/C [25] 47.9% | viability, T/C [26] 46.9% | viability, T/C [27] 48.4% | viability, T/C [28] 36.6% | viability, T/C [29] 35.4% | viability, T/C [30] 28.2% | viability, T/C [31] 22.6% | viability, T/C [32] 22.1% | viability, T/C [33] 18.2% | viability, T/C [34] 17.9% | viability, T/C [35] 21% | viability, T/C [36] 17.7% | viability, T/C [37] 11.4% | viability, T/C [38] 11.9% | viability, T/C [39] 12.3% | viability, T/C [40] 13.8% | viability, T/C [41] 12.7% | viability, T/C [42] 11.8%
2340 nM: IC50 [3]
